Measurements as given in publication PMC7865627, “Small Molecule-Based Prodrug Targeting Prostate Specific Membrane Antigen for the Treatment of Prostate Cancer” (Cancers, 2021).
Like-named read-outs stand apart in the source and are kept apart here. *1 amine or outer side, *2 acyl side, *3 side chain or, on linkers, in order; H or OH if unused. Where a SMILES comes first, the peptide text is derived from it. Bridges are numbered along the chain shown (N, C = ends). Roman numbers before positions name the chains, in order. [ ]: non-standard residue; d: D form. The star is where a group is joined. Hexanoyl(6-succinimido-3yl) = O=C1CC([*:1])C(=O)N1CCCCCC(=O)[*:2]; Dolaproine = CO[C@@H]([C@@H]1CCCN1)[C@@H](C)C(=O)O; Dil = CC[C@H](C)[C@H](NC)[C@@H](CC(=O)O)OC; γGlu = O=C(O)[C@H](CCC(=O)[*:2])N[*:1]; PABC = O=C(OCc1ccc(N[*:1])cc1)[*:2]; X2 = C[C@@H](N*)[C@@H](O)c1ccccc1; X1 = O=C(C1CCC(CN[*:1])CC1)[*:2]; Cit = NC(=O)NCCC[C@H](N)C(=O)O; NMeV = CN[C@H](C(=O)O)C(C)C; CO = O=C([*:1])[*:2]; Ahx = NCCCCCC(=O)O

Experiments:
[1] = target: T1, PSMA (Homo sapiens, UniProt Q04609); assay: Competitive binding assay against 3H-ZJ24 on PC3pip cells
T1 construct: expressed in transfected cells; host or cells: PC3pip cells (PC3 retrovirally transfected with PSMA), from Dr. Michel Sadelain, MSKCC
Method: The assay was carried as previously reported by incubation PC3pip cells with different concentrations of drug conjugates in the presence of 10 nM N-[N-[(S)-1,3-dicarboxypropyl]carbamoyl]-S-[^3H]-methyl-L-cysteine (^3H-ZJ24) (GE Healthcare Life Sciences, Chicago, IL, USA). Radioactivity of cell pellet was counted by scintillation counter. The concentration required to inhibit 50% of binding was determined (IC50) by GraphPad Prism 3.0.

[2] = Stability on incubation in PBS (without cathepsin), HPLC; assay type: in vitro ADME; details: incubation with PBS without cathepsin, triplicate
Method: Cathepsin is a prevalent protease that PSMA internalized ligands will encounter as they enter into late endosomes/lysosomes. To investigate if PSMA-targeted drug conjugates were cleavable by cathepsin B, the two conjugates were incubated with or without cathepsin protease and chromatographed by high performance liquid chromatography (HPLC).
At different time intervals, 40 μL of the solution was taken out into tubes loaded with 1 μL of 1 mM E64 protease inhibitor. […] Studies were performed in triplicate.

[3] = In vitro cytotoxicity assay (CCK-8), PC3flu; assay type: cell-based, human; details: human, PC3flu cells
Method: Cells (1000/well) were seeded in 96-well culture plates the day before treatment.

T1 sequence (Q04609 whole entry): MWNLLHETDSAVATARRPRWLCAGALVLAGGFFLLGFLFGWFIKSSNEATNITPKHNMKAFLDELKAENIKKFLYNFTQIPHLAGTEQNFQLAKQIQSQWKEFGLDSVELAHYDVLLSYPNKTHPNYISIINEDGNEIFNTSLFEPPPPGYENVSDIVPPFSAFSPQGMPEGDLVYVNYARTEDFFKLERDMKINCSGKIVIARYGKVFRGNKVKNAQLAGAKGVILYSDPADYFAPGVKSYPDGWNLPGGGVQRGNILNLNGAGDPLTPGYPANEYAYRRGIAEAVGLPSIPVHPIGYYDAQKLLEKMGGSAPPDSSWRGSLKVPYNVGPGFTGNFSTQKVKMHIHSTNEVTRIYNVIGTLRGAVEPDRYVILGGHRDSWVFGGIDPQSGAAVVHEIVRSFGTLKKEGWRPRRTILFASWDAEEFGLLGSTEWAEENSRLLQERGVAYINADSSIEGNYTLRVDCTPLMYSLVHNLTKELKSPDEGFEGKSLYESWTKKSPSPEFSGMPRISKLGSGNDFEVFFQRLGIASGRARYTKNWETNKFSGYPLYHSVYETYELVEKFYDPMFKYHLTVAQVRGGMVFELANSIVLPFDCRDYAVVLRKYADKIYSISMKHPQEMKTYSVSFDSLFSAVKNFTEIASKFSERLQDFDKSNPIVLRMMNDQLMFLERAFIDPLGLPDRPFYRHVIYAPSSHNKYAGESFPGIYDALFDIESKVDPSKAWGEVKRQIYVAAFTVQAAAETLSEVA

## CC[C@H](C)[C@@H]([C@@H](CC(=O)N1CCC[C@H]1[C@H](OC)[C@@H](C)C(=O)N[C@H](C)[C@@H](O)c1ccccc1)OC)N(C)C(=O)[C@@H](NC(=O)[C@H](C(C)C)N(C)C(=O)OCc1ccc(NC(=O)[C@H](CCCNC(N)=O)NC(=O)[C@@H](NC(=O)CCCCCN2C(=O)CC(SC[C@H](NC(=O)[C@@H](CCC(=O)O)NC(=O)[C@@H](CCC(=O)O)NC(=O)[C@@H](CCC(=O)O)NC(=O)CCCCCNC(=O)C3CCC(CNC(=O)CC[C@H](NC(=O)N[C@@H](CCC(=O)O)C(=O)O)C(=O)O)CC3)C(=O)NCCCCCC(=O)N[C@@H](CCCCN)C(N)=O)C2=O)C(C)C)cc1)C(C)C (some centres unmarked) [PSMA-1-VcMMAE] (I: {Glu-CO-γGlu}-[X1][Ahx][dE][dE][dE]C[Ahx]K-NH2 / II: V[Cit][PABC][NMeV]V[Dil][Dolaproine]-X2; linker I:6-II:N via Hexanoyl(6-succinimido-3yl))
[1]
  IC50: 0.00434 µM
[2]
  stability in PBS (in words): stable
[3]; 72 h, CCK-8, in the presence of 10 μM of PSMA-1, read-out: EC50, cytotoxicity to PC3flu cells + PSMA-1
  EC50 at 72 h: 0.261 ± 0.0056 µM
[3]; 72 h, CCK-8, in the presence of protease inhibitor E64 (50 μM given for the Cy5.5 conjugates), read-out: EC50, cytotoxicity to PC3flu cells + E64
  EC50 at 72 h: 0.385 ± 0.0053 µM
[3]; 72 h incubation, CCK-8, mean ± SD, read-out: EC50, cytotoxicity to PC3flu cells
  EC50 at 72 h: 0.222 ± 0.0028 µM
